Laboratory results taken from ChEMBL document CHEMBL5034035, “Discovery of an Oxycyclohexyl Acid Lysophosphatidic Acid Receptor 1 (LPA1) Antagonist BMS-986278 for the Treatment of Pulmonary Fibrotic Diseases” (J Med Chem, 2021).
In brackets after ≈: the same amount, converted by molar mass. Values belong to the compound of their own block, whether it stands above or below them.

Experiments:
[1] = AUC (0 to 24 hrs) in Cynomolgus monkey plasma at 500 mg/kg, po administered for 4 weeks; assay type: ADME, organism-based, Macaca fascicularis; parameters: route oral, time 4 weeks, dose 500 mg/kg
[2] = Volume of distribution at steady state in Sprague-Dawley rat at 3 mg/kg, po or 1 mg/kg, iv measured up to 24 hrs by LC-MS/MS analysis; assay type: ADME, organism-based; details: in vivo, read-out: Vdss
[3] = Drug metabolism in human hepatocytes assessed as formation of acyl glucuronide metabolites at 10 uM measured after 2 hrs by LC/UV/MS analysis; assay type: ADME, cell-based, Hepatocyte
[4] = target: T1, hERG (Homo sapiens, UniProt Q12809); assay: Inhibition of hERG at 10 uM by electrophysiological assay relative to control
T1 sequence (Q12809 whole entry): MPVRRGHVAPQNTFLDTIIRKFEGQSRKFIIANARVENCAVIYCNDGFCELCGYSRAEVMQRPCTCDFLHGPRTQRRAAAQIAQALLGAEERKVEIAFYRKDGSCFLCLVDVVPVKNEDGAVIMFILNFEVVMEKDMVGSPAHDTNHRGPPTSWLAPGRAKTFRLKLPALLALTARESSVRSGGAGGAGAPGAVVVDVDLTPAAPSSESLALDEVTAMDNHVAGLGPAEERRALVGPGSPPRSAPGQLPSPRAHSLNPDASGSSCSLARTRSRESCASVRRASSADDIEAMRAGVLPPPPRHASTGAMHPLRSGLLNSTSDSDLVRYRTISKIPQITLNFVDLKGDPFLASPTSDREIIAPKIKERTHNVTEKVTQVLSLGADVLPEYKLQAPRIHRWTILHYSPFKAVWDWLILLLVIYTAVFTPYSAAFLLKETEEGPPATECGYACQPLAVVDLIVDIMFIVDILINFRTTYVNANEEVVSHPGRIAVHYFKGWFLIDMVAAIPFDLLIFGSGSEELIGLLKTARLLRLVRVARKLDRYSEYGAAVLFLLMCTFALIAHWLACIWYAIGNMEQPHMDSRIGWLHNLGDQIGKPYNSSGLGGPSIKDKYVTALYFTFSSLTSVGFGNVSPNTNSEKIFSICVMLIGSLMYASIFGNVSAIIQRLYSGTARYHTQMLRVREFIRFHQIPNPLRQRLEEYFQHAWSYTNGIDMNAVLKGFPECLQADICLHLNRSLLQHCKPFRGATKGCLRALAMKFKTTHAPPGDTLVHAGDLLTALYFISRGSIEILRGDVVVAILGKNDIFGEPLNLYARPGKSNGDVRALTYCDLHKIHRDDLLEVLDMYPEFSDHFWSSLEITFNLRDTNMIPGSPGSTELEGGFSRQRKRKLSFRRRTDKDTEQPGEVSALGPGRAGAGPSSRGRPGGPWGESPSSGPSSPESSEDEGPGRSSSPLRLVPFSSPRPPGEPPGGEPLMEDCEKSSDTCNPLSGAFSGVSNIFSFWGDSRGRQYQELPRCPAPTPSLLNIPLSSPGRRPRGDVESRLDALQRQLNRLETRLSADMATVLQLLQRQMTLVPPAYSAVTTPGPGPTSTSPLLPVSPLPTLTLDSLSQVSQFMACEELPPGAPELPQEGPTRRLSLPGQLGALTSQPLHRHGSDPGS

[5] = Volume of distribution at steady state in cynomolgus monkey at 3 mg/kg, po or 1 mg/kg, iv measured up to 24 hrs by LC-MS/MS analysis; assay type: ADME, organism-based, Macaca fascicularis; details: in vivo, read-out: Vdss
[6] = Metabolic stability in liver microsomes (unknown origin) assessed as half life; assay type: ADME, Microsome
[7] = Oral bioavailability in cynomolgus monkey at 3 mg/kg measured up to 24 hrs by LC-MS/MS analysis; assay type: ADME, organism-based, Macaca fascicularis; details: in vivo
[8] = Elimination half life in CD-1 mouse at 3 mg/kg, po or 1 mg/kg, iv measured up to 24 hrs by LC-MS/MS analysis; assay type: ADME, organism-based; details: in vivo, read-out: beta t1/2 (converted)
[9] = Hepatobiliary toxicity in Cynomolgus monkey assessed as cholangitis measured up to 1 month; parameters: species or system Macaca fascicularis; details: in vivo, time <=1 months
[10] = Hepatobiliary toxicity in Cynomolgus monkey assessed as cholestasis measured up to 1 month; parameters: species or system Macaca fascicularis; details: time <=1 months
[11] = Hepatobiliary toxicity in Cynomolgus monkey assessed as bile duct hyperplasia measured up to 1 month; parameters: species or system Macaca fascicularis; details: in vivo, time <=1 months
[12] = Drug metabolism in monkey hepatocytes assessed as carbamate hydrolytic product formation at 10 uM measured after 2 hrs by LC/UV/MS analysis; assay type: ADME, cell-based, Macaca mulatta, Hepatocyte; details: rhesus monkey
[13] = AUC (0 to 24 hrs) in Sprague-Dawley rat plasma at 300 mg/kg/day; assay type: ADME, organism-based; parameters: time < 24 hr, dose 300 mg/kg/day
[14] = Drug metabolism in monkey hepatocytes assessed as N-demethylation metabolite formation at 10 uM measured after 2 hrs by LC/UV/MS analysis; assay type: ADME, cell-based, Macaca mulatta, Hepatocyte; details: rhesus monkey
[15] = Hepatobiliary toxicity in Sprague-Dawley rat assessed as cholangitis at up to 100 mg/kg/day measured up to 6 months; assay type: organism-based; details: in vivo
[16] = target: T1, hERG; assay: Inhibition of hERG at 30 uM by electrophysiological assay relative to control
[17] = Hepatobiliary toxicity in Sprague-Dawley rat assessed as cholestasis at up to 100 mg/kg/day measured up to 6 month; assay type: organism-based; details: in vivo, time <=6 months
[18] = system: Rattus norvegicus; assay: (§1) Anti-fibrotic activity in Sprague-Dawley rat model of bleomycin-induced lung fibrosis assessed as decrease in bleomycin-induced collagen deposition at 10 mg/kg, po BID followed by tracheal administration of bleomycin on day 8 and measured on day 21 by Masson's trichrome staining based HALO densitometric analysis relative to control; assay type: functional; parameters: scale not given: the % may be the effect or the level left; details: time 21 day
[19] = Hepatobiliary toxicity in Cynomolgus monkey assessed as bile duct hyperplasia at up to 150 mg/kg/day measured up to 9 months; assay type: organism-based, Macaca fascicularis; details: in vivo
[20] = Drug metabolism in dog hepatocytes assessed as carbamate hydrolytic product formation at 10 uM measured after 2 hrs by LC/UV/MS analysis; assay type: ADME, cell-based, Canis lupus familiaris, Hepatocyte
[21] = Drug metabolism in human hepatocytes assessed as N-demethylation metabolite formation at 10 uM measured after 2 hrs by LC/UV/MS analysis; assay type: ADME, cell-based, Hepatocyte
[22] = Hepatobiliary toxicity in Cynomolgus monkey assessed as cholestasis at up to 150 mg/kg/day measured up to 9 month; assay type: organism-based, Macaca fascicularis; details: in vivo, time <=9 months
[23] = target: Lysophosphatidic acid receptor 1 (Mus musculus) (UniProt P61793); assay: Antagonist activity at mouse LPA1 receptor expressed in CHO cells assessed as inhibition of LPA stimulated calcium flux incubated for 20 mins followed by LPA stimulation and measured for 90 seconds; assay type: functional, cell-based; details: filed as antagonist
Lysophosphatidic acid receptor 1 (Mus musculus), sequence (P61793 whole entry): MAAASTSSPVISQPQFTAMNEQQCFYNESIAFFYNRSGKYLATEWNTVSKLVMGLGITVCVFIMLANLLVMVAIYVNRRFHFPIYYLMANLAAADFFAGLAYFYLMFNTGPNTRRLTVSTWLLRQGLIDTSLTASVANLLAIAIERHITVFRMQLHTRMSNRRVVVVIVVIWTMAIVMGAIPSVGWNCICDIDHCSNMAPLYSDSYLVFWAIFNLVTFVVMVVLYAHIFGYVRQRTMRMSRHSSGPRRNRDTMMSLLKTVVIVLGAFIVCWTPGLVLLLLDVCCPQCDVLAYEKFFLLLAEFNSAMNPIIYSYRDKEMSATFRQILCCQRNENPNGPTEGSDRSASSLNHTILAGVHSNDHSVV

[24] = Drug metabolism in mouse hepatocytes assessed as carbamate hydrolytic product formation at 10 uM measured after 2 hrs by LC/UV/MS analysis; assay type: ADME, cell-based, Hepatocyte
[25] = target: Phosphatidylcholine translocator ABCB4 (Homo sapiens, UniProt P21439); assay: Inhibition of MDR3 (unknown origin); assay type: ADME
Phosphatidylcholine translocator ABCB4, sequence (P21439 whole entry): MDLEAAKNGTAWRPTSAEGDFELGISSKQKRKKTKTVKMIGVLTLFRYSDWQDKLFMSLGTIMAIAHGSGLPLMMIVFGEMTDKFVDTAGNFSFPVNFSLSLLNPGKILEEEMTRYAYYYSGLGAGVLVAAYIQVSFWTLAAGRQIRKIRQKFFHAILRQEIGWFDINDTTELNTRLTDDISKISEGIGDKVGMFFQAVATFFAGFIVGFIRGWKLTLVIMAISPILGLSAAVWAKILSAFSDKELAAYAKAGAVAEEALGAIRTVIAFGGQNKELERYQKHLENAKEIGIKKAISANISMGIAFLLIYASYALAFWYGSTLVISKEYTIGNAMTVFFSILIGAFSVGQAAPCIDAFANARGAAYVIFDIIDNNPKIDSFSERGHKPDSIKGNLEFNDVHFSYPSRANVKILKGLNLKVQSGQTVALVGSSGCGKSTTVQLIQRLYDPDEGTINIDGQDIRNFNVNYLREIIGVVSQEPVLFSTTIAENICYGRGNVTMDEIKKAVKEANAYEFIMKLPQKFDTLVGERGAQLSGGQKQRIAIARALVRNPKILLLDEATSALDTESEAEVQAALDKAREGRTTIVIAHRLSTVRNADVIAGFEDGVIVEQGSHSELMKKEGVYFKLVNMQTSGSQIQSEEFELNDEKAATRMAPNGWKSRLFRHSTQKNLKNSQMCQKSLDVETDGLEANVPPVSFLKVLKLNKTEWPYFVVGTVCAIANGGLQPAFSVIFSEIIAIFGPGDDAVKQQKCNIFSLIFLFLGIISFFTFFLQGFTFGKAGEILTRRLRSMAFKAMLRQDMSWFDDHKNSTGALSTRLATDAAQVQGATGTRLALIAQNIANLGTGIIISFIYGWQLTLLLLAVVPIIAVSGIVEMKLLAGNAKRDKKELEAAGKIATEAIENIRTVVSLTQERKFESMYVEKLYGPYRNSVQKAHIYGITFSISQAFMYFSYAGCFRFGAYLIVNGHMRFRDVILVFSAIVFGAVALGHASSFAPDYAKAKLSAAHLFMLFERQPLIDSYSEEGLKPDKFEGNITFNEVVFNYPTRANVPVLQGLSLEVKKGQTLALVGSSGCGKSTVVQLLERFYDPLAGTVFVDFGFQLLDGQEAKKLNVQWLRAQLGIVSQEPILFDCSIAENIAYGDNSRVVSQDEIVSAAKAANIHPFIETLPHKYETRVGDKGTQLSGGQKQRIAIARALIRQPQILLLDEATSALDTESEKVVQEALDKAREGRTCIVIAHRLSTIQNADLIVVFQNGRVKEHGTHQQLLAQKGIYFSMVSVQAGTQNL

[26] = Hepatobiliary toxicity in Cynomolgus monkey assessed as cholangitis at up to 150 mg/kg/day measured up to 9 months; assay type: organism-based, Macaca fascicularis; details: in vivo
[27] = system: Rattus norvegicus; assay: as §1, with “30” for “10”; assay type: functional; parameters: scale not given: the % may be the effect or the level left
[28] = system: Rattus norvegicus; assay: as §1, with “3” for “10”; assay type: functional; parameters: scale not given: the % may be the effect or the level left; details: time 21 day
[29] = animal or person; details: Mus musculus, CD-1
[30] = AUC (0 to 24 hrs) in Cynomolgus monkey plasma at 150 mg/kg/day; assay type: ADME, organism-based, Macaca fascicularis; parameters: time < 24 hr, dose 150 mg/kg/day
[31] = Drug metabolism in rat hepatocytes assessed as N-demethylation metabolite formation at 10 uM measured after 2 hrs by LC/UV/MS analysis; assay type: ADME, cell-based, Hepatocyte
[32] = animal or person; details: Mus musculus, CD-1; remark: listed apart in the source
[33] = Hepatobiliary toxicity in Sprague-Dawley rat assessed as bile duct hyperplasia at up to 100 mg/kg/day measured up to 6 months; assay type: organism-based; details: in vivo
[34] = Aqueous solubility of compound at pH 7.5; assay type: physicochemical
[35] = target: hERG (KCNH2) (Homo sapiens, UniProt Q12809); assay: Inhibition of hERG at 15 uM by electrophysiological assay relative to control
hERG (KCNH2), sequence (Q12809 whole entry): as the sequence (Q12809 whole entry) above

[36] = AUC (0 to 24 hrs) in Cynomolgus monkey plasma at 50 mg/kg, po administered for 7 days; assay type: ADME, organism-based, Macaca fascicularis; parameters: route oral, time 7 day, dose 50 mg/kg
[37] = system: Rattus norvegicus; assay: Anti-fibrotic activity in Sprague-Dawley rat model of bleomycin-induced lung fibrosis assessed as decrease in bleomycin-induced collagen deposition by measuring decrease in PSR-stained lung sections at 30 mg/kg, po BID for 21 days followed by tracheal administration of bleomycin by PSR staining based HALO densitometric analysis relative to control; assay type: functional; parameters: scale not given: the % may be the effect or the level left; details: time 21 day

- AUC at 672 h [1]: 962 µg·h/mL
- Vd [2]: 9 L/kg
- Drug metabolism [3]: Metabolite_Detected
- Vd [5]: 6.3 L/kg
- half-life [6]: > 0.917 h
- bioavailability [7]: 65%
- half-life [8]: 1.5 h
SMILES: Cc1nc(-c2nnn(C)c2COC(=O)N(C)CC2CCC2)ccc1O[C@H]1CCC[C@H](C(=O)O)C1
- inhibition at 10 µM [4]: 6%
- Activity [9]: Non-Toxic
- Activity [10]: Non-Toxic
- Activity [11]: Non-Toxic

- Drug metabolism [12]: Metabolite_Detected
- Vd [2]: 3.5 L/kg
- AUC at 24 h [13]: 1140 µg·h/mL
- Drug metabolism [14]: Metabolite_Detected
- Vd [5]: 1.6 L/kg
- Drug metabolism [20]: Metabolite_Detected
- Drug metabolism [21]: Metabolite_Detected
- bioavailability [7]: 79%
- half-life [8]: 2.5 h
- Kb [23]: 0.004 µM
- Drug metabolism [24]: Metabolite_Detected
- IC50 [25]: > 100 µM
- IC50 [29]: 48 µM
- AUC at 24 h [30]: 1140 µg·h/mL
- Drug metabolism [31]: Metabolite_Detected
- IC50 [32]: 174 µM
- solubility [34]: 6210 µg/mL (≈ 13.9 mM)
SMILES: CCCN(C)C(=O)OCc1c(-c2ccc(O[C@H]3CCC[C@H](C(=O)O)C3)c(C)n2)nnn1C [ADMILPARANT]
- Activity [15]: Non-Toxic
- inhibition at 30 µM [16]: 35%
- Activity [17]: Non-Toxic
- Activity [18]: 56%
- Activity [19]: Non-Toxic
- Activity [22]: Non-Toxic
- Activity [26]: Non-Toxic
- Activity [27]: 41%
- Activity [28]: 48%
- Activity [33]: Non-Toxic

SMILES: Cc1noc(-c2ccc(-c3ccc(C4(C(=O)O)CC4)cc3)cc2)c1NC(=O)O[C@H](C)c1ccccc1 [BMS-986020]
- inhibition at 15 µM [35]: 7%
- Kb [23]: 0.0037 µM
- AUC at 168 h [36]: 74 µg·h/mL
- IC50 [25]: 7.5 µM
- Activity [37]: 63%
